Laboratory results reported in US9155312B2, “Fungicidal combinations of active ingredients” (Bayer Intellectual Property GmbH, priority 2004, dated 2015).

What follows are compounds tested on Erysiphe graminis f.sp. tritici (assay: Erysiphe test (wheat)/curative). Settings: curative, sprayed 48 hours after inoculation, application rate 25 g/ha, evaluation 7 days after inoculation.
Type: in vivo
Experimental: Erysiphe Test (Wheat)/Curative
To prepare a suitable preparation of active compound, a commercial formulation of active compound is diluted with water to the desired concentration.
To test for curative activity, young plants were dusted with spores of Erysiphe graminis f.sp. tritici. 48 hours after the inoculation, the plants were sprayed with the preparation of active compound at the stated application rates.
The plants were placed in a greenhouse at a temperature of about 20° C. and a relative atmospheric humidity of about 80% to promote the development of mildew pustules.
Evaluation was carried out 7 days after the inoculation. 0% means an efficacy which corresponds to that of the control, whereas an efficacy of 100% means that no infection is observed.

Row | SMILES | efficacy in % found [%]
1 | CCOC(=O)C1=NN(c2ccc(Cl)cc2Cl)C(C)(C(=O)OCC)C1 (stereo not drawn) [Mefenpyr, diethyl 1-(2,4-dichlorophenyl)-4,5-dihydro-5-methyl-1H-pyrazole-3,5-dicarboxylate] | 0

Same assay, conditions: curative, sprayed 48 hours after inoculation, application rate 125 g/ha, evaluation 7 days after inoculation

Row | SMILES | efficacy in % found [%]
2 | CO/N=C(/C(=O)OC)c1ccccc1CO/N=C(\C)c1cccc(C(F)(F)F)c1 [Trifloxystrobin, trifloxystrobin] | 86
3 | CCCN(CC)CC1COC2(CCC(C(C)(C)C)CC2)O1 (stereo not drawn) [Spiroxamin, spiroxamine] | 0
4 | OC(Cc1ccccc1Cl)(Cn1nc[nH]c1=S)C1(Cl)CC1 (stereo not drawn) [Prothioconazole, prothioconazole] | 43
5 | CO/N=C(/C1=NOCCO1)c1ccccc1Oc1ncnc(Oc2ccccc2Cl)c1F [Fluoxastrobin, fluoxastrobin] | 0
6 | CC(C)(C)C(O)(CCc1ccc(Cl)cc1)Cn1cncn1 (stereo not drawn) [Tebuconazole, tebuconazole] | 57
